Values joined by “and” are separate entries in the source; they are usually repeats but may differ in a detail not shown here. Equal entries are not always repeated. Inconclusive results and toxic doses are left out. No stated cut-off is given here; in the data, active means T/C of 150% or more; inactive means T/C below 125%.
System: L1210 leukemia ip in BDF1 mice, survival T/C
Experiment: NCI In Vivo Anticancer Drug Screen. Data for tumor model L1210 Leukemia (intraperitoneal) in B6D2F1 (BDF1) mice
Conditions: endpoint: mean survival time, higher = longer survival
In short: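 Transplantable tumor model; survival measured in treated vs vehicle control mice. Value = treated/control.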

[1] = dose: 100.0 mg/kg/injection, schedule: Q01DX009 (ip), vehicle: saline with Tween-80
[2] = dose: 100.0 mg/kg/injection, schedule: Q04DX003 (ip), vehicle: saline with Tween-80
[3] = dose: 200.0 mg/kg/injection, schedule: Q01DX009 (ip), vehicle: saline with Tween-80
[4] = dose: 200.0 mg/kg/injection, schedule: Q04DX003 (ip), vehicle: saline with Tween-80
[5] = dose: 400.0 mg/kg/injection, schedule: Q04DX003 (ip), vehicle: saline with Tween-80
[6] = dose: 100.0 mg/kg/injection, schedule: Q01DX009 (ip), vehicle: Klucel (hydroxypropylcellulose) (HPC)
[7] = dose: 200.0 mg/kg/injection, schedule: Q01DX009 (ip), vehicle: Klucel (hydroxypropylcellulose) (HPC)
[8] = dose: 400.0 mg/kg/injection, schedule: Q01DX009 (ip), vehicle: Klucel (hydroxypropylcellulose) (HPC)
[9] = dose: 100.0 mg/kg/injection, schedule: Q01DX001 (ip), vehicle: Klucel (hydroxypropylcellulose) (HPC)
[10] = dose: 200.0 mg/kg/injection, schedule: Q01DX001 (ip), vehicle: Klucel (hydroxypropylcellulose) (HPC)
[11] = dose: 100.0 mg/kg/injection, schedule: Q04DX003 (ip), vehicle: Klucel (hydroxypropylcellulose) (HPC)
[12] = dose: 200.0 mg/kg/injection, schedule: Q04DX003 (ip), vehicle: Klucel (hydroxypropylcellulose) (HPC)
[13] = dose: 400.0 mg/kg/injection, schedule: Q04DX003 (ip), vehicle: Klucel (hydroxypropylcellulose) (HPC)
[14] = dose: 50.0 mg/kg/injection, schedule: Q01DX009 (ip), vehicle: Klucel (hydroxypropylcellulose) (HPC)
[15] = dose: 100.0 mg/kg/injection, schedule: Q01DX001 (ip), vehicle: saline with Tween-80
[16] = dose: 200.0 mg/kg/injection, schedule: Q01DX001 (ip), vehicle: saline with Tween-80
[17] = dose: 400.0 mg/kg/injection, schedule: Q01DX001 (ip), vehicle: saline with Tween-80

Measured: T/C

[Br][Nd]([Br])[Br]
inactive: dose: 50.0 mg/kg/injection, schedule: Q04DX003 (ip), vehicle: saline 96 % of control | dose: 100.0 mg/kg/injection, schedule: Q04DX003 (ip), vehicle: saline 91 % of control | dose: 200.0 mg/kg/injection, schedule: Q04DX003 (ip), vehicle: saline 97 % of control | dose: 400.0 mg/kg/injection, schedule: Q04DX003 (ip), vehicle: saline 86 % of control

Cc1ccc2c(c1)nc1c3ccccc3nc(-c3ccccc3N)n21
inactive: [1] 89 % of control | [2] 104 % of control | [3] 87 % of control | [4] 91 % of control | [5] 104 % of control

O=C(Nc1cccc(F)c1)N(Cc1ccccc1)Cc1ccccc1
inactive: [6] 92 % of control | [7] 102 % of control | [8] 97 % of control

CCSCC1OC(n2ncc3c(N)ncnc32)C(O)C1O (centres undefined)
inactive: [9] 98 % of control | [10] 93 % of control | dose: 400.0 mg/kg/injection, schedule: Q01DX001 (ip), vehicle: Klucel (hydroxypropylcellulose) (HPC) 97 % of control

NC(=S)N/N=C1/CCc2ccccc21
inactive: dose: 100.0 mg/kg/injection, schedule: Q01DX001 (ip), vehicle: carboxymethylcellulose (CMC) 113 % of control

CC(C)Oc1ccc(C(=O)NS(=O)(=O)c2ccc(N)cc2)cc1
inactive: dose: 100.0 mg/kg/injection, schedule: Q01DX001 (ip), vehicle: saline 101 % of control | dose: 100.0 mg/kg/injection, schedule: Q01DX009 (ip), vehicle: saline 91 % of control | dose: 200.0 mg/kg/injection, schedule: Q01DX001 (ip), vehicle: saline 101 % of control | dose: 200.0 mg/kg/injection, schedule: Q01DX009 (ip), vehicle: saline 103 % of control | dose: 400.0 mg/kg/injection, schedule: Q01DX001 (ip), vehicle: saline 100 % of control | dose: 400.0 mg/kg/injection, schedule: Q01DX009 (ip), vehicle: saline 100 % of control

CCS(=O)(=O)C1C2C=CC(O2)C1S(=O)(=O)CC (centres undefined)
inactive: [11] 102 % of control | [12] 101 % of control | [13] 96 % of control

O=C(Nc1ccc(F)c([N+](=O)[O-])c1)N1CCN(c2ccccc2)CC1
inactive: [6] 101 % of control | [7] 98 % of control | [8] 107 % of control

CSc1ccc(N=Cc2ccc3c(c2)OCO3)cc1
inactive: [14] 103 % of control | [6] 97 % of control | [11] 102 % of control | [7] 99 % of control | [12] 107 % of control | [13] 94 % of control

Cc1cc(=O)n2c3c(c4c(cc13)c(CBr)cc(=O)n4C)OC2
inactive: dose: 25.0 mg/kg/injection, schedule: Q01DX009 (ip), vehicle: Klucel (hydroxypropylcellulose) (HPC) 86 % of control | [14] 102 % of control | dose: 75.0 mg/kg/injection, schedule: Q01DX009 (ip), vehicle: Klucel (hydroxypropylcellulose) (HPC) 94 % of control and 87 % of control | [11] 103 % of control | [12] 93 % of control | [13] 104 % of control

COC(=O)c1ccccc1C1=C(O)C(=O)C(c2ccccc2C(=O)OC)=C(O)C1=O
inactive: [6] 97 % of control | [7] 98 % of control

NC1=C(Sc2ccccc2)C(=O)c2ccccc2C1=O
inactive: [15] 105 % of control | [16] 94 % of control | [17] 94 % of control

c1ccc(NCc2ccco2)cc1
inactive: [2] 106 % of control | [4] 98 % of control | [5] 106 % of control

CCCCCCCCCCCCCCC1CC(=O)OC1=O (centres undefined)
inactive: [6] 92 % of control | [11] 86 % of control | [7] 86 % of control | [12] 88 % of control | [13] 93 % of control

NS(=O)(=O)c1cc[n+]([O-])c2ccccc12
inactive: [15] 97 % of control | [1] 96 % of control | [16] 97 % of control | [3] 94 % of control | [17] 96 % of control

COP(=O)(OC)Oc1c(Cl)c(OP(=O)(OC)OC)c(Cl)c(OP(=O)(OC)OC)c1Cl
inactive: dose: 100.0 mg/kg/injection, schedule: Q04DX002 (ip), vehicle: Klucel (hydroxypropylcellulose) (HPC) 115 % of control | dose: 200.0 mg/kg/injection, schedule: Q04DX002 (ip), vehicle: Klucel (hydroxypropylcellulose) (HPC) 100 % of control | dose: 400.0 mg/kg/injection, schedule: Q04DX002 (ip), vehicle: Klucel (hydroxypropylcellulose) (HPC) 86 % of control

O=C(Nc1ccccc1)OCC#CCOC(=O)Nc1ccccc1
inactive: [6] 97 % of control | [7] 90 % of control | [8] 100 % of control

CCN(CC)CC(OC(=O)C(c1ccccc1)c1ccccc1)C(COC)OC (centres undefined)
inactive: dose: 55.0 mg/kg/injection, schedule: Q01DX Z (ip), vehicle: saline 109 % of control | dose: 83.0 mg/kg/injection, schedule: Q01DX Z (ip), vehicle: saline 96 % of control | dose: 125.0 mg/kg/injection, schedule: Q01DX Z (ip), vehicle: saline 91 % of control

COc1c(Cl)c(C(Cl)(Cl)Cl)nc2ccccc12
inactive: [14] 101 % of control | [6] 104 % of control

Cc1cccc(C[As](=O)(O)O)c1
inactive: dose: 12.5 mg/kg/injection, schedule: Q04DX003 (ip), vehicle: Klucel (hydroxypropylcellulose) (HPC) 97 % of control | dose: 25.0 mg/kg/injection, schedule: Q04DX003 (ip), vehicle: Klucel (hydroxypropylcellulose) (HPC) 111 % of control

Nc1ccccc1SC1CC(=O)N(c2ccc(Br)cc2Cl)C1=O (centres undefined)
inactive: [14] 90 % of control and 92 % of control | [6] 91 % of control | [11] 98 % of control | [7] 93 % of control and 96 % of control and 91 % of control | [12] 93 % of control | [8] 96 % of control | [13] 93 % of control

CCC(=N\N=C(N)N)/C(C)=N\N=C(N)N
inactive: dose: 15.0 mg/kg/injection, schedule: Q01DX Z (ip), vehicle: saline 93 % of control | dose: 30.0 mg/kg/injection, schedule: Q01DX Z (ip), vehicle: saline 98 % of control | dose: 120.0 mg/kg/injection, schedule: Q01DX Z (ip), vehicle: saline 121 % of control

N#CCN1CCCCCC1
inactive: dose: 5.0 mg/kg/injection, schedule: Q01DX009 (ip), vehicle: Klucel (hydroxypropylcellulose) (HPC) 102 % of control | dose: 10.0 mg/kg/injection, schedule: Q01DX009 (ip), vehicle: Klucel (hydroxypropylcellulose) (HPC) 98 % of control | dose: 10.0 mg/kg/injection, schedule: Q04DX003 (ip), vehicle: Klucel (hydroxypropylcellulose) (HPC) 98 % of control | dose: 20.0 mg/kg/injection, schedule: Q04DX003 (ip), vehicle: Klucel (hydroxypropylcellulose) (HPC) 91 % of control

O=c1oc(-c2ccc3c(c2)OCO3)nc2ccccc12
inactive: dose: 50.0 mg/kg/injection, schedule: Q01DX009 (ip), vehicle: saline with Tween-80 94 % of control | [1] 94 % of control | [3] 94 % of control

CCN(CC)C(=O)CBr
inactive: dose: 50.0 mg/kg/injection, schedule: Q01DX001 (ip), vehicle: Klucel (hydroxypropylcellulose) (HPC) 99 % of control | [9] 99 % of control | [10] 97 % of control

O=C1CC(=O)N2CCCCC2N1 (centres undefined)
inactive: dose: 100.0 mg/kg/injection, schedule: Q01DX001 (ip), vehicle: alcohol 106 % of control | dose: 200.0 mg/kg/injection, schedule: Q01DX001 (ip), vehicle: alcohol 103 % of control | dose: 400.0 mg/kg/injection, schedule: Q01DX001 (ip), vehicle: alcohol 110 % of control
